Source: ChEMBL document CHEMBL6127119 (J Med Chem, 2024)
Values after ≈ are worked out from the molar mass of the structure shown. Active and inactive are the calls of the source. No cut-off for these calls is given here.

Legend:
[1] = system: Enterococcus faecium; experiment: Antibacterial activity against vancomycin-resistant Enterococcus faecium harboring VanA phenotype incubated for 16 to 24 hrs by CLSI based broth microdilution method; type: functional; details: time 16-24 hrs
[2] = system: Escherichia coli; experiment: Antibacterial activity against Escherichia coli AB1157 incubated for 16 to 24 hrs by CLSI based broth microdilution method; type: functional; details: time 16-24 hrs
[3] = system: Acinetobacter baumannii; experiment: Antibacterial activity against Carbapenem-resistant Acinetobacter baumannii clinical isolate incubated for 16 to 24 hrs by CLSI based broth microdilution method; type: functional; details: time 16-24 hrs
[4] = system: Pseudomonas aeruginosa; experiment: Antibacterial activity against Pseudomonas aeruginosa PAO1 incubated for 16 to 24 hrs by CLSI based broth microdilution method; type: functional; details: time 16-24 hrs
[5] = system: Escherichia coli; experiment: Potency index, ratio of Vancomycin MIC to test compound MIC for Escherichia coli […] incubated for 16 to 24 hrs by CLSI based broth microdilution method; type: functional; details: time 16-24 hrs
[6] = system: Staphylococcus aureus; experiment: Potency index, ratio of Norvancomycin MIC to test compound MIC for vancomycin-intermediate Staphylococcus aureus incubated for 16 to 24 hrs by CLSI based broth microdilution method; type: functional; details: time 16-24 hrs
[7] = system: Enterococcus faecium; experiment: Potency index, ratio of Norvancomycin MIC to test compound MIC for vancomycin-resistant Enterococcus faecium incubated for 16 to 24 hrs by CLSI based broth microdilution method; type: functional; details: time 16-24 hrs
[8] = system: Acinetobacter baumannii; experiment: Potency index, ratio of Norvancomycin MIC to test compound MIC for Carbapenem-resistant Acinetobacter baumannii clinical isolate incubated for 16 to 24 hrs by CLSI based broth microdilution method; type: functional; details: time 16-24 hrs
[9] = system: Staphylococcus epidermidis; experiment: Antibacterial activity against methicillin-resistant Staphylococcus epidermidis clinical isolate incubated for 16 to 24 hrs by CLSI based broth microdilution method; type: functional; details: time 16-24 hrs
[10] = system: Staphylococcus aureus; experiment: Antibacterial activity against methicillin-resistant Staphylococcus aureus clinical isolate incubated for 16 to 24 hrs by CLSI based broth microdilution method; type: functional; details: time 16-24 hrs
[11] = Hemolytic activity in rat RBC upto 100 ug/ml incubated for 1 hr by absorbance based assay; type: toxicity, cell-based; details: erythrocyte, dose < 100 µg/ml
[12] = system: Escherichia coli; experiment: Bactericidal activity against Escherichia coli AB1157 assessed as reduction in bacterial count measured after 24 hrs by time kill assay; type: functional, organism-based
[13] = AUClast in CD-1 mouse at 10 mg/kg, iv measured for 24 hrs by UPLC analysis; type: ADME, organism-based; details: in vivo
[14] = Clearance in CD-1 mouse at 10 mg/kg, iv measured for 24 hrs by UPLC analysis; type: ADME, organism-based; details: in vivo
[15] = Volume of distribution at steady state in CD-1 mouse at 10 mg/kg, iv measured for 24 hrs by UPLC analysis; type: ADME, organism-based; details: in vivo, read-out: Vdss
[16] = Toxicity in BALB/c mouse infected with methicillin-resistant Staphylococcus aureus MRSA252 assessed as survival rate at 10 to 20 mg/kg, iv for 7 days; type: organism-based; details: in vivo, 168 h, dose 10-20 mg/kg, time 7 day
[17] = system: Staphylococcus aureus; experiment: Antibacterial activity against Staphylococcus aureus Mu50 at 1:1 ratio of compound and FPP at […] incubated for 16 to 24 hrs by absorbance based assay; type: functional, organism-based; details: dose 128.0 µg/ml, time 16-24 hrs
[18] = system: Staphylococcus aureus; experiment: Induction of cytoplasmic membrane permeabilization in methicillin-resistant Staphylococcus aureus MRSA252 measured for 40 mins by PI/NPN staining based analysis; type: functional, organism-based; details: dose 1-128 µg/ml
[19] = system: Enterococcus faecalis; experiment: Induction of inner membrane permeabilization in Enterococcus faecalis ATCC29212 measured for 20 mins by DiSC3(5) staining based analysis; type: functional, organism-based; details: dose 1-128 µg/ml
[20] = system: Staphylococcus aureus; experiment: Induction of cytoplasmic membrane depolarization in methicillin-resistant Staphylococcus aureus MRSA252 by DiSC3(5) staining based analysis; type: functional, organism-based
[21] = system: Enterococcus faecalis; experiment: Induction of cytoplasmic membrane depolarization in Enterococcus faecalis ATCC29212 by DiSC3(5) staining based analysis; type: functional, organism-based
[22] = system: Staphylococcus aureus; experiment: Inhibition of peptidoglycan biosynthesis in Staphylococcus aureus MRSA252 assessed as increase in accumulation of Park's nucleotide at 0.5 ug/ml incubated for 2 hrs by RP-HPLC analysis; type: functional, organism-based; details: dose 0.5 µg/ml
[23] = system: Peptidoglycan; experiment: Binding affinity to Ac-Lys(Gly5)-D-Ala-D-Ala lipid II model peptide moiety assessed as association constant by ITC analysis
[24] = system: Peptidoglycan; experiment: Potency index, ratio of vancomycin Ka to test compound Ka for Ac-Lys(D-isoAsp)-D-Ala-D-Ala lipid II model peptide moiety
[25] = system: Peptidoglycan; experiment: Potency index, ratio of vancomycin Ka to test compound Ka for Ac-Lys(Gly5)-D-Ala-D-Ala lipid II model peptide moiety
[26] = system: Peptidoglycan; experiment: Potency index, ratio of vancomycin Ka to test compound Ka for Ac-Lys(D-isoAsp)-D-Ala-D-Ala lipid II model peptide moiety assessed as association constant by ITC analysis
[27] = system: Peptidoglycan; experiment: Binding affinity to Ac-Lys(Ac)-D-Ala-D-Ala lipid II model peptide moiety assessed as change in Gibb's free energy by ITC analysis

`CC(C)C[C@@H](N)C(=O)N[C@H]1C(=O)N[C@@H](CC(N)=O)C(=O)N[C@H]2C(=O)N[C@H]3C(=O)N[C@H](C(=O)N[C@H](C(=O)NCc4ccc(-c5ccc(CNC(=N)N)cc5)cc4)c4cc(O)cc(O)c4-c4cc3ccc4O)[C@H](O)c3ccc(c(Cl)c3)Oc3cc2cc(c3O[C@@H]2O[C@H](CO)[C@@H](O)[C@H](O)[C@H]2O[C@H]2C[C@](C)(N)[C@H](O)[C@H](C)O2)Oc2ccc(cc2Cl)[C@H]1O` showed an MIC [1] of 4 µg/mL (≈ 2.39 µM), an MIC [2] of 8 µg/mL (≈ 4.79 µM) and an MIC [3] of 64 µg/mL (≈ 38.3 µM). For the same molecule, the MIC [4] was greater than 128 µg/mL, the Ratio [5] was 2 and the Ratio [6] was 2. The Ratio [7] was 2, the Ratio [8] was 2 and the MIC [9] was no more than 0.03 µg/mL. The MIC [10] was no more than 0.03 µg/mL, the Activity [11] was “Non-Toxic” and the Activity [12] was “Dose-Dependent Effect”. The AUC(0-t) at 24 h [13] was 28400 ng·h/mL, the clearance [14] was 4.2 mL/min/kg and the Vd [15] was 5.12 L/kg. For the same molecule, the Activity [16] was 100%, the Activity [17] was “Active” and the Activity [18] was “Dose-Dependent Effect”. The Activity [19] was “Dose-Dependent Effect”, the Activity [20] was “inactive” and the Activity [21] was “Active”. For the same molecule, the Activity [22] was “Active”, the Ka [23] was 2.32e+06 M⁻¹ and the Ratio [24] was 2.7. The Ratio [25] was 1.7, the Ratio [26] was 17.3 and the deltaG [27] was -8.35 kcal/mol.
